Test results as given in the supplement of paper PMC10307832.

Columns and labels:
Assay in all cases: relative viability (nuclei count vs DMSO), 5 days (fraction); higher = more cells survive
LK-2 = tested on: LK-2
How it was run: (§1)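 After 5 days of treatment, lung cancer cells in 1536-well plates were fixed and stained in a single step (final 0.05% Triton X-100, 1% formaldehyde, 1 ug/ml Hoechst) and their nuclei counted on 4× images. Treatment had been applied by pin tool the day after seeding as one drug alone or as a fixed anchor-drug dose with five library-drug doses (not always all listed) in √10 steps. Relative viability is the nuclei count of treated wells divided by that of vehicle wells, and values are medians of duplicate plates.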

NCI-H661 = tested on: NCI-H661
How it was run: as §1

CAL-12T = tested on: CAL-12T
How it was run: as §1

HCC-827 = tested on: HCC-827
How it was run: as §1

NCI-H322M = tested on: NCI-H322M
How it was run: as §1

NCI-H520 = tested on: NCI-H520
How it was run: as §1

NCI-H1355 = tested on: NCI-H1355
How it was run: as §1

ABC-1 = tested on: ABC-1
How it was run: as §1

NCI-H1437 = tested on: NCI-H1437
How it was run: as §1

HCC-15 = tested on: HCC-15
How it was run: as §1

RERF-LC-KJ = tested on: RERF-LC-KJ
How it was run: as §1

SW 1573 = tested on: SW 1573
How it was run: as §1

NCI-H1734 = tested on: NCI-H1734
How it was run: as §1

EKVX = tested on: EKVX
How it was run: as §1

COR-L23 = tested on: COR-L23
How it was run: as §1

H3255 = tested on: H3255
How it was run: as §1

NCI-H1563 = tested on: NCI-H1563
How it was run: as §1

NCI-H2228 = tested on: NCI-H2228
How it was run: as §1

NCI-H2405 = tested on: NCI-H2405
How it was run: as §1

PC-3 [JPC-3] = tested on: PC-3 [JPC-3]
How it was run: as §1

PC-14 = tested on: PC-14
How it was run: as §1

Work on `NC(=O)Nc1cc(-c2cccc(F)c2)sc1C(=O)N[C@H]1CCCNC1` [AZD7762] + Cc1nc(NC(=O)N2CCC[C@H]2C(N)=O)sc1-c1ccnc(C(C)(C)C(F)(F)F)c1 [Alpelisib] (partner 2 µM) yielded a relative viability (LK-2; first compound 0.01 µM) of 1.21, a relative viability (LK-2; first compound 0.03162 µM) of 0.946 and a relative viability (LK-2; first compound 0.1 µM) of 0.976. The relative viability (LK-2; first compound 0.3162 µM) was 0.838, the relative viability (LK-2; first compound 1 µM) was 0.618 and the relative viability (NCI-H661; first compound 0.01 µM) was 0.712. The relative viability (NCI-H661; first compound 0.03162 µM) was 0.611, the relative viability (NCI-H661; first compound 0.1 µM) was 0.761 and the relative viability (NCI-H661; first compound 0.3162 µM) was 0.491. For the same compound, the relative viability (NCI-H661; first compound 1 µM) was 0.35, the relative viability (CAL-12T; first compound 0.01 µM) was 1.3 and the relative viability (CAL-12T; first compound 0.03162 µM) was 1.18. The relative viability (CAL-12T; first compound 0.1 µM) was 1.24, the relative viability (CAL-12T; first compound 0.3162 µM) was 0.955 and the relative viability (CAL-12T; first compound 1 µM) was 0.155. For the same compound, the relative viability (HCC-827; first compound 0.01 µM) was 1.01, the relative viability (HCC-827; first compound 0.03162 µM) was 1.02 and the relative viability (HCC-827; first compound 0.1 µM) was 1. The relative viability (HCC-827; first compound 0.3162 µM) was 0.985, the relative viability (HCC-827; first compound 1 µM) was 0.659 and the relative viability (NCI-H322M; first compound 0.01 µM) was 0.776. The relative viability (NCI-H322M; first compound 0.03162 µM) was 0.906, the relative viability (NCI-H322M; first compound 0.1 µM) was 0.819 and the relative viability (NCI-H322M; first compound 0.3162 µM) was 0.94. It also gave a relative viability (NCI-H322M; first compound 1 µM) of 0.906, a relative viability (NCI-H520; first compound 0.01 µM) of 1.05 and a relative viability (NCI-H520; first compound 0.03162 µM) of 1.04. For the same compound, the relative viability (NCI-H520; first compound 0.1 µM) was 0.832, the relative viability (NCI-H520; first compound 0.3162 µM) was 0.635 and the relative viability (NCI-H520; first compound 1 µM) was 0.371. For the same compound, the relative viability (NCI-H1355; first compound 0.01 µM) was 0.894, the relative viability (NCI-H1355; first compound 0.03162 µM) was 0.886 and the relative viability (NCI-H1355; first compound 0.1 µM) was 0.825. The relative viability (NCI-H1355; first compound 0.3162 µM) was 0.861, the relative viability (NCI-H1355; first compound 1 µM) was 0.852 and the relative viability (ABC-1; first compound 0.01 µM) was 1.03. The relative viability (ABC-1; first compound 0.03162 µM) was 0.831, the relative viability (ABC-1; first compound 0.1 µM) was 0.942 and the relative viability (ABC-1; first compound 0.3162 µM) was 0.557. It also gave a relative viability (ABC-1; first compound 1 µM) of 0.311, a relative viability (NCI-H1437; first compound 0.01 µM) of 0.995 and a relative viability (NCI-H1437; first compound 0.03162 µM) of 0.962. It also gave a relative viability (NCI-H1437; first compound 0.1 µM) of 1, a relative viability (NCI-H1437; first compound 0.3162 µM) of 1 and a relative viability (NCI-H1437; first compound 1 µM) of 1. It also gave a relative viability (HCC-15; first compound 0.01 µM) of 0.995, a relative viability (HCC-15; first compound 0.03162 µM) of 0.945 and a relative viability (HCC-15; first compound 0.1 µM) of 0.983. For the same compound, the relative viability (HCC-15; first compound 0.3162 µM) was 0.93, the relative viability (HCC-15; first compound 1 µM) was 1.12 and the relative viability (RERF-LC-KJ; first compound 0.01 µM) was 0.792. For the same compound, the relative viability (RERF-LC-KJ; first compound 0.03162 µM) was 0.773, the relative viability (RERF-LC-KJ; first compound 0.1 µM) was 0.787 and the relative viability (RERF-LC-KJ; first compound 0.3162 µM) was 0.924. For the same compound, the relative viability (RERF-LC-KJ; first compound 1 µM) was 0.914, the relative viability (SW 1573; first compound 0.01 µM) was 0.885 and the relative viability (SW 1573; first compound 0.03162 µM) was 0.807. The relative viability (SW 1573; first compound 0.1 µM) was 0.926, the relative viability (SW 1573; first compound 0.3162 µM) was 1.08 and the relative viability (SW 1573; first compound 1 µM) was 0.647. The relative viability (NCI-H1734; first compound 0.01 µM) was 0.729, the relative viability (NCI-H1734; first compound 0.03162 µM) was 0.782 and the relative viability (NCI-H1734; first compound 0.1 µM) was 0.775. For the same compound, the relative viability (NCI-H1734; first compound 0.3162 µM) was 0.753, the relative viability (NCI-H1734; first compound 1 µM) was 0.646 and the relative viability (EKVX; first compound 0.01 µM) was 0.846. The relative viability (EKVX; first compound 0.03162 µM) was 0.845, the relative viability (EKVX; first compound 0.1 µM) was 0.805 and the relative viability (EKVX; first compound 0.3162 µM) was 0.787. It also gave a relative viability (EKVX; first compound 1 µM) of 0.468, a relative viability (COR-L23; first compound 0.01 µM) of 0.938 and a relative viability (COR-L23; first compound 0.03162 µM) of 0.895. The relative viability (COR-L23; first compound 0.1 µM) was 0.797, the relative viability (COR-L23; first compound 0.3162 µM) was 0.621 and the relative viability (COR-L23; first compound 1 µM) was 0.162. It also gave a relative viability (H3255; first compound 0.01 µM) of 0.727, a relative viability (H3255; first compound 0.03162 µM) of 0.63 and a relative viability (H3255; first compound 0.1 µM) of 0.634. The relative viability (H3255; first compound 0.3162 µM) was 0.705, the relative viability (H3255; first compound 1 µM) was 0.357 and the relative viability (NCI-H1563; first compound 0.01 µM) was 1.01. It also gave a relative viability (NCI-H1563; first compound 0.03162 µM) of 0.918, a relative viability (NCI-H1563; first compound 0.1 µM) of 0.978 and a relative viability (NCI-H1563; first compound 0.3162 µM) of 0.943. For the same compound, the relative viability (NCI-H1563; first compound 1 µM) was 0.76, the relative viability (NCI-H2228; first compound 0.01 µM) was 0.886 and the relative viability (NCI-H2228; first compound 0.03162 µM) was 0.666. The relative viability (NCI-H2228; first compound 0.1 µM) was 0.8, the relative viability (NCI-H2228; first compound 0.3162 µM) was 0.407 and the relative viability (NCI-H2228; first compound 1 µM) was 0.19. For the same compound, the relative viability (NCI-H2405; first compound 0.01 µM) was 0.808, the relative viability (NCI-H2405; first compound 0.03162 µM) was 0.79 and the relative viability (NCI-H2405; first compound 0.1 µM) was 0.671. It also gave a relative viability (NCI-H2405; first compound 0.3162 µM) of 0.445, a relative viability (NCI-H2405; first compound 1 µM) of 0.27 and a relative viability (PC-3 [JPC-3]; first compound 0.01 µM) of 0.998. The relative viability (PC-3 [JPC-3]; first compound 0.03162 µM) was 1.03, the relative viability (PC-3 [JPC-3]; first compound 0.1 µM) was 1.05 and the relative viability (PC-3 [JPC-3]; first compound 0.3162 µM) was 1.1. The relative viability (PC-3 [JPC-3]; first compound 1 µM) was 0.897, the relative viability (PC-14; first compound 0.01 µM) was 0.894 and the relative viability (PC-14; first compound 0.03162 µM) was 0.953. It also gave a relative viability (PC-14; first compound 0.1 µM) of 0.922, a relative viability (PC-14; first compound 0.3162 µM) of 0.919 and a relative viability (PC-14; first compound 1 µM) of 0.392.
